The target in one test is T1, PDE1C (Homo sapiens, UniProt Q14123).
T1 construct: endogenous in cells
Nature of the test: Kinobead competition assay. The settings on record: dose-dependent binding; read-out: affinity PDE1C. The source says: The binding of KV-24 and KV-30 to the nucleotide-binding pocket raises the question of whether these compounds also target other nucleotide-binding proteins, such as kinases. To evaluate potential off-target effects, we performed Kinobead competition assays. This chemoproteomic approach is conceptually very similar to the one used here in that broad spectrum kinase inhibitors are immobilized on beads. […] PDE1C is a cAMP/cGMP nucleotide-binding protein that features two divalent metal cation cofactors. The hydroxamic acid moiety of KV-24 might chelate these metal cofactors, supporting the hypothesis that KV-24 binds the active site of PDE1C. […] With the help of our chemoproteomic platform, future structure–activity relationship (SAR) libraries based on the KV-24 and KV-30 scaffolds may be explored to improve selectivity toward either HINT1, kinase targets, or PDE1C. […]
LC-MS/MS. The different sample types were measured with different LC-MS/MS settings. MBLAC2 2-dose competition assays were measured with the Lumos1 setup, MBLAC2 9-dose competition assays were measured with the Lumos2 setup, and kinobeads assays were measured with the Eclipse setup.
Peptides were analyzed via LC–MS/MS on a Dionex Ultimate3000 nano HPLC coupled to either one of two Orbitrap Fusion Lumos mass spectrometers, or to an Orbitrap Eclipse mass spectrometer, operated via the Thermo Scientific Xcalibur software. […]

Test [1] has as its system casein kinase 2 (CK2) complex proteins (CSNK2A1/3, CSNK2A2, CSNK2B, EIF3J). Nature of the test: Kinobead competition assay. Format: binding, human. The text has this:
The binding of KV-24 and KV-30 to the nucleotide-binding pocket raises the question of whether these compounds also target other nucleotide-binding proteins, such as kinases. To evaluate potential off-target effects, we performed Kinobead competition assays. This chemoproteomic approach is conceptually very similar to the one used here in that broad spectrum kinase inhibitors are immobilized on beads. […] PDE1C is a cAMP/cGMP nucleotide-binding protein that features two divalent metal cation cofactors. The hydroxamic acid moiety of KV-24 might chelate these metal cofactors, supporting the hypothesis that KV-24 binds the active site of PDE1C. […]
Given that local GTP production by NME1 and NME2 is essential for fueling dynamin-driven endocytosis, we investigated the effect of KV-50-mediated NME1/2 inhibition on fluorescent transferrin (TF) uptake in cells. HeLa cells were treated with KV-50 or known endocytosis inhibitors (Pitstop-2 and Dynasore), and surface-bound and internalized fluorescent TF were quantified. […]
LC-MS/MS. The different sample types were measured with different LC-MS/MS settings. MBLAC2 2-dose competition assays were measured with the Lumos1 setup, MBLAC2 9-dose competition assays were measured with the Lumos2 setup, and kinobeads assays were measured with the Eclipse setup. […]

T1 sequence (Q14123 whole entry): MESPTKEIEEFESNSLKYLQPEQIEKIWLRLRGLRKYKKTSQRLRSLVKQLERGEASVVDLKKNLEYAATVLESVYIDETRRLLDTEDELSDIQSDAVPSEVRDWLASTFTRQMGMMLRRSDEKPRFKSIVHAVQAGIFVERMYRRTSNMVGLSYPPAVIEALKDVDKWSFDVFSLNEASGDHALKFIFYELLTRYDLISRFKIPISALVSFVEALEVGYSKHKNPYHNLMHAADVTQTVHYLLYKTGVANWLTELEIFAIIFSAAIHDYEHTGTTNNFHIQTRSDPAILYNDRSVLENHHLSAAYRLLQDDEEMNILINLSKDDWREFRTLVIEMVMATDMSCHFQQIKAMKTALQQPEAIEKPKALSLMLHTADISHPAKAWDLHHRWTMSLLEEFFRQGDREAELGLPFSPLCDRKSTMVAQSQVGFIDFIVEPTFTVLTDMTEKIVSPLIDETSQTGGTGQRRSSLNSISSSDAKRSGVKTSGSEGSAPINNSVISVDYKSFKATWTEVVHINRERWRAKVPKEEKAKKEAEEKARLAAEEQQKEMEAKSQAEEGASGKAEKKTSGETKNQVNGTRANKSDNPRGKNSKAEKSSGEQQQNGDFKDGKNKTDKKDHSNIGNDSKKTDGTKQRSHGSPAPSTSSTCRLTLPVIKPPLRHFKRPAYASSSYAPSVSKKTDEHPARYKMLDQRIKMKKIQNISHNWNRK

For the compound `O=C(NO)c1ccc(-c2nc3ccccc3n3cccc23)cc1` [KV-24], the Kd on PDE1C is approximately 2000 nM. Further, the “casein kinase 2 family members binding” value in test [1] is on record as “reduced binding at two-digit μM concentrations”.

The values are drawn from publication PMC12186257, “Serendipitous and Systematic Chemoproteomic Discovery of MBLAC2, HINT1, and NME1‑4 Inhibitors from Histone Deacetylase-Targeting Pharmacophores” (ACS Chemical Biology, 2025).
